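Assay format: 96-well plates, 48-hour exposure. GI50 is the concentration that inhibits growth by half. TGI: concentration producing complete growth inhibition.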
Tests used:
Test in all cases: growth of human tumour cells (NCI), 48 h; in the data active = GI50 below about 0.43 µM; inactive = the rest
TK-10 renal = test system: TK-10 renal
MDA-MB-435 = test system: MDA-MB-435
HL-60(TB) leukemia = test system: HL-60(TB) leukemia
CCRF-CEM leukemia = test system: CCRF-CEM leukemia
SNB-19 CNS = test system: SNB-19 CNS
HCT-15 colon = test system: HCT-15 colon
HT29 colon = test system: HT29 colon
NCI/ADR-RES ovarian = test system: NCI/ADR-RES ovarian
NCI-H460 lung = test system: NCI-H460 lung
A549 NSCLC = test system: A549 NSCLC
ACHN renal = test system: ACHN renal
A498 renal = test system: A498 renal
SN12C renal = test system: SN12C renal
T-47D breast = test system: T-47D breast
MOLT-4 leukemia = test system: MOLT-4 leukemia
MALME-3M melanoma = test system: MALME-3M melanoma
HOP-92 NSCLC = test system: HOP-92 NSCLC
LOX IMVI melanoma = test system: LOX IMVI melanoma
IGROV1 ovarian = test system: IGROV1 ovarian
SNB-75 CNS = test system: SNB-75 CNS
NCI-H522 lung = test system: NCI-H522 lung
HOP-62 NSCLC = test system: HOP-62 NSCLC
OVCAR-4 ovarian = test system: OVCAR-4 ovarian
DU-145 prostate = test system: DU-145 prostate
SR leukemia = test system: SR leukemia
HCC-2998 colon = test system: HCC-2998 colon
RXF 393 renal = test system: RXF 393 renal
RPMI-8226 leukemia = test system: RPMI-8226 leukemia
HS 578T breast = test system: HS 578T breast
CAKI-1 renal = test system: CAKI-1 renal
MDA-MB-231 breast = test system: MDA-MB-231 breast
OVCAR-3 ovarian = test system: OVCAR-3 ovarian
NCI-H23 lung = test system: NCI-H23 lung
HCT-116 colon = test system: HCT-116 colon
UACC-257 melanoma = test system: UACC-257 melanoma
KM12 colon = test system: KM12 colon
SW-620 colon = test system: SW-620 colon
SK-MEL-5 melanoma = test system: SK-MEL-5 melanoma
SF-295 CNS = test system: SF-295 CNS
UO-31 renal = test system: UO-31 renal
EKVX NSCLC = test system: EKVX NSCLC
M14 melanoma = test system: M14 melanoma
K-562 leukemia = test system: K-562 leukemia
NCI-H226 lung = test system: NCI-H226 lung
SF-268 CNS = test system: SF-268 CNS
UACC-62 melanoma = test system: UACC-62 melanoma
SK-MEL-2 melanoma = test system: SK-MEL-2 melanoma
SF-539 CNS = test system: SF-539 CNS
MCF7 breast = test system: MCF7 breast
SK-MEL-28 melanoma = test system: SK-MEL-28 melanoma
COLO 205 colon = test system: COLO 205 colon
PC-3 prostate = test system: PC-3 prostate
U251 CNS = test system: U251 CNS
OVCAR-8 ovarian = test system: OVCAR-8 ovarian
OVCAR-5 ovarian = test system: OVCAR-5 ovarian
786-0 renal = test system: 786-0 renal
BT-549 breast = test system: BT-549 breast
SK-OV-3 ovarian = test system: SK-OV-3 ovarian

O=C(Nc1ccc(-n2cc(-c3ccncc3)c(-c3ccc(O)c(Cl)c3)n2)cc1)c1cc(C(F)(F)F)cc(C(F)(F)F)c1
> 25 µM: TGI (TK-10 renal) | TGI (MDA-MB-435) | TGI (SNB-19 CNS) | TGI (NCI/ADR-RES ovarian) | TGI (NCI-H460 lung) | TGI (A549 NSCLC) | TGI (ACHN renal) | TGI (A498 renal) | TGI (SN12C renal) | TGI (T-47D breast) | TGI (LOX IMVI melanoma) | TGI (IGROV1 ovarian) | TGI (SNB-75 CNS) | TGI (NCI-H522 lung) | TGI (HOP-62 NSCLC) | TGI (OVCAR-4 ovarian) | TGI (DU-145 prostate) | TGI (SR leukemia) | TGI (HCC-2998 colon) | TGI (HS 578T breast) | TGI (CAKI-1 renal) | TGI (OVCAR-3 ovarian) | TGI (NCI-H23 lung) | TGI (HCT-116 colon) | TGI (UACC-257 melanoma) | TGI (KM12 colon) | TGI (SW-620 colon) | TGI (UO-31 renal) | TGI (EKVX NSCLC) | TGI (K-562 leukemia) | TGI (NCI-H226 lung) | TGI (SF-268 CNS) | TGI (MCF7 breast) | TGI (COLO 205 colon) | TGI (PC-3 prostate) | TGI (U251 CNS) | TGI (OVCAR-8 ovarian) | TGI (OVCAR-5 ovarian)
13.7 µM: TGI (HOP-92 NSCLC)
16.7 µM: TGI (MALME-3M melanoma)
21.8 µM: TGI (CCRF-CEM leukemia)
12.9 µM: TGI (UACC-62 melanoma) | TGI (SF-539 CNS)
13.4 µM: TGI (HT29 colon)
19 µM: TGI (SK-MEL-5 melanoma)
13.5 µM: TGI (RPMI-8226 leukemia)
23.3 µM: TGI (SK-MEL-28 melanoma)
15.5 µM: TGI (HCT-15 colon) | TGI (MOLT-4 leukemia)
15 µM: TGI (SF-295 CNS)
18 µM: TGI (HL-60(TB) leukemia)
12.7 µM: TGI (SK-MEL-2 melanoma)
9.58 µM: TGI (M14 melanoma)
6.8 µM: TGI (MDA-MB-231 breast)
inactive: GI50 (TK-10 renal) 5.87 µM | GI50 (MDA-MB-435) 5.79 µM | GI50 (HL-60(TB) leukemia) 5.8 µM | GI50 (CCRF-CEM leukemia) 4.09 µM | GI50 (SNB-19 CNS) 11.9 µM | GI50 (HCT-15 colon) 4.84 µM | GI50 (HT29 colon) 5.01 µM | GI50 (NCI/ADR-RES ovarian) 11.1 µM | GI50 (NCI-H460 lung) 7.23 µM | GI50 (A549 NSCLC) 9.11 µM | GI50 (ACHN renal) 8.41 µM | GI50 (A498 renal) 14.1 µM | GI50 (SN12C renal) 8.93 µM | GI50 (T-47D breast) 12.2 µM | GI50 (MOLT-4 leukemia) 3.89 µM | GI50 (MALME-3M melanoma) 4.66 µM | GI50 (HOP-92 NSCLC) 1.04 µM | GI50 (LOX IMVI melanoma) 5.59 µM | GI50 (IGROV1 ovarian) 12.7 µM | GI50 (SNB-75 CNS) 3.73 µM | GI50 (NCI-H522 lung) 4.6 µM | GI50 (HOP-62 NSCLC) 12.5 µM | GI50 (OVCAR-4 ovarian) 8.12 µM | GI50 (DU-145 prostate) 9.69 µM | GI50 (SR leukemia) 8.79 µM | GI50 (HCC-2998 colon) 9.89 µM | GI50 (RXF 393 renal) 3.1 µM | GI50 (RPMI-8226 leukemia) 2.34 µM | GI50 (HS 578T breast) 6.1 µM | GI50 (CAKI-1 renal) 6.57 µM | GI50 (MDA-MB-231 breast) 2.92 µM | GI50 (OVCAR-3 ovarian) 7.42 µM | GI50 (NCI-H23 lung) 9.8 µM | GI50 (HCT-116 colon) 6.24 µM | GI50 (UACC-257 melanoma) 14.7 µM | GI50 (KM12 colon) 7.85 µM | GI50 (SW-620 colon) 11.1 µM | GI50 (SK-MEL-5 melanoma) 5.68 µM | GI50 (SF-295 CNS) 4.71 µM | GI50 (UO-31 renal) 5.3 µM | GI50 (EKVX NSCLC) 11.1 µM | GI50 (M14 melanoma) 3.58 µM | GI50 (K-562 leukemia) 4.75 µM | GI50 (NCI-H226 lung) > 25 µM | GI50 (SF-268 CNS) 9.33 µM | GI50 (UACC-62 melanoma) 5.35 µM | GI50 (SK-MEL-2 melanoma) 5.08 µM | GI50 (SF-539 CNS) 3.57 µM | GI50 (MCF7 breast) 8.46 µM | GI50 (SK-MEL-28 melanoma) 6.07 µM | GI50 (COLO 205 colon) 10.8 µM | GI50 (PC-3 prostate) 5.02 µM | GI50 (U251 CNS) 4.55 µM | GI50 (OVCAR-8 ovarian) 11.8 µM | GI50 (OVCAR-5 ovarian) 9.18 µM
6.58 µM: TGI (RXF 393 renal)

COc1ccc(-c2nnc(COc3ccc(Cl)cc3Cl)o2)cc1OC
4.91 µM: TGI (HOP-92 NSCLC)
4.59 µM: TGI (RXF 393 renal)
41.1 µM: TGI (SF-539 CNS)
70.6 µM: TGI (SF-295 CNS)
6.61 µM: TGI (TK-10 renal)
3.36 µM: TGI (SNB-75 CNS)
30.3 µM: TGI (NCI-H226 lung)
7.9 µM: TGI (HOP-62 NSCLC)
> 100 µM: TGI (HL-60(TB) leukemia) | TGI (SNB-19 CNS) | TGI (HCT-15 colon) | TGI (NCI/ADR-RES ovarian) | TGI (MOLT-4 leukemia) | TGI (LOX IMVI melanoma) | TGI (IGROV1 ovarian) | TGI (HCC-2998 colon) | TGI (NCI-H23 lung) | TGI (KM12 colon) | TGI (SK-MEL-5 melanoma) | TGI (EKVX NSCLC) | TGI (K-562 leukemia) | TGI (UACC-62 melanoma) | TGI (MCF7 breast) | TGI (PC-3 prostate) | TGI (OVCAR-8 ovarian) | TGI (OVCAR-5 ovarian)
3.32 µM: TGI (786-0 renal)
37.5 µM: TGI (SK-MEL-2 melanoma)
inactive: GI50 (TK-10 renal) 3.15 µM | GI50 (HL-60(TB) leukemia) > 100 µM | GI50 (SNB-19 CNS) 6.69 µM | GI50 (HCT-15 colon) > 100 µM | GI50 (NCI/ADR-RES ovarian) 3.44 µM | GI50 (A498 renal) 2.78 µM | GI50 (MOLT-4 leukemia) 8.3 µM | GI50 (HOP-92 NSCLC) 2.16 µM | GI50 (LOX IMVI melanoma) 3.16 µM | GI50 (IGROV1 ovarian) 4.22 µM | GI50 (786-0 renal) 1.8 µM | GI50 (SNB-75 CNS) 1.61 µM | GI50 (NCI-H522 lung) 3.28 µM | GI50 (HOP-62 NSCLC) 2.37 µM | GI50 (HCC-2998 colon) > 100 µM | GI50 (RXF 393 renal) 2.14 µM | GI50 (HS 578T breast) 3.73 µM | GI50 (NCI-H23 lung) 6.18 µM | GI50 (KM12 colon) > 100 µM | GI50 (SK-MEL-5 melanoma) 3.27 µM | GI50 (BT-549 breast) 16.9 µM | GI50 (SF-295 CNS) 13.5 µM | GI50 (EKVX NSCLC) 4.39 µM | GI50 (K-562 leukemia) > 100 µM | GI50 (NCI-H226 lung) 3.42 µM | GI50 (SF-268 CNS) 5.95 µM | GI50 (UACC-62 melanoma) 3.35 µM | GI50 (SK-MEL-2 melanoma) 7.79 µM | GI50 (SF-539 CNS) 5.52 µM | GI50 (MCF7 breast) 5.45 µM | GI50 (PC-3 prostate) 6.4 µM | GI50 (U251 CNS) 4.36 µM | GI50 (OVCAR-8 ovarian) 4.02 µM | GI50 (OVCAR-5 ovarian) 3.53 µM
76.5 µM: TGI (BT-549 breast)
18.3 µM: TGI (NCI-H522 lung)
17.6 µM: TGI (U251 CNS)
96.7 µM: TGI (SF-268 CNS)
96.2 µM: TGI (HS 578T breast)
7.22 µM: TGI (A498 renal)

Fc1c(F)c(F)c2c(c1F)CSc1nc3ccccc3n1-2
> 100 µM: TGI (TK-10 renal) | TGI (MDA-MB-435) | TGI (HL-60(TB) leukemia) | TGI (CCRF-CEM leukemia) | TGI (SK-OV-3 ovarian) | TGI (SNB-19 CNS) | TGI (HCT-15 colon) | TGI (HT29 colon) | TGI (NCI/ADR-RES ovarian) | TGI (NCI-H460 lung) | TGI (A549 NSCLC) | TGI (ACHN renal) | TGI (A498 renal) | TGI (SN12C renal) | TGI (T-47D breast) | TGI (MOLT-4 leukemia) | TGI (MALME-3M melanoma) | TGI (HOP-92 NSCLC) | TGI (LOX IMVI melanoma) | TGI (IGROV1 ovarian) | TGI (786-0 renal) | TGI (SNB-75 CNS) | TGI (NCI-H522 lung) | TGI (HOP-62 NSCLC) | TGI (OVCAR-4 ovarian) | TGI (DU-145 prostate) | TGI (SR leukemia) | TGI (HCC-2998 colon) | TGI (RXF 393 renal) | TGI (RPMI-8226 leukemia) | TGI (HS 578T breast) | TGI (CAKI-1 renal) | TGI (MDA-MB-231 breast) | TGI (OVCAR-3 ovarian) | TGI (NCI-H23 lung) | TGI (HCT-116 colon) | TGI (UACC-257 melanoma) | TGI (KM12 colon) | TGI (SW-620 colon) | TGI (SK-MEL-5 melanoma) | TGI (SF-295 CNS) | TGI (EKVX NSCLC) | TGI (M14 melanoma) | TGI (K-562 leukemia) | TGI (NCI-H226 lung) | TGI (SF-268 CNS) | TGI (UACC-62 melanoma) | TGI (SK-MEL-2 melanoma) | TGI (SF-539 CNS) | TGI (MCF7 breast) | TGI (SK-MEL-28 melanoma) | TGI (COLO 205 colon) | TGI (PC-3 prostate) | TGI (U251 CNS) | TGI (OVCAR-8 ovarian) | TGI (OVCAR-5 ovarian)

Source: PubChem BioAssay (NCI)
